In patent US20260132128A1, “COMPOUND FOR RECOVERING P53 MUTATION FUNCTION AND USE THEREOF” (SHENZHEN ZHONGGE BIOLOGICAL TECHNOLOGY CO., LTD., priority 2022, published 2026):
Marks after values point to notes of the source that are not given here.

Assays:
p53 Y220C [1] = molecular target: T1, p53 Y220C (Homo sapiens, UniProt P04637, P309S/R273H/Y220C); assay: DNA binding test (HTRF): binding of P53Y220C protein to DNA; assay type: biochemical; settings: HTRF, activation of p53 Y220C (aa 94-312) binding to biotin DNA
T1 construct: a truncated mutant containing only amino acids 94-312 of p53; made in house; host or cells: E. coli

p53 Y220C [2] = molecular target: T2, p53 Y220C (Homo sapiens, UniProt P04637, Y220C); assay: as above; assay type: biochemical; settings: multiple ratio of EC50 of the compound to the reference compound, DNA binding test
T2 construct: a truncated mutant containing only amino acids 94-312 of p53; made in house; host or cells: E. coli

NUGC-3 cells = assay: NUGC-3 cell proliferation assay (CTG); assay type: cell-based, human; settings: for GI50: Homo sapiens, NUGC-3, 144 h, 6 days, CTG; for Compound GI50 (nM)/Reference compound GI50 (nM): multiple ratio of GI50 of the compound to the reference compound
Summary of the method: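 NUGC-3 cells (250/well), plated overnight, were exposed 6 days at 37° C to compound, 10 doses of 1:3 dilutions from 10 μM top final. Viability by CellTiter-Glo luminescence; inhibition relative to 0.1% DMSO and blank, GI50 from variable-slope nonlinear fit.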

BxPC-3 cells = assay: BxPC-3 cell proliferation test (CTG); assay type: cell-based; settings: Homo sapiens, 144 h, 6 days
Protocol: To detect the inhibitory effects of the aforementioned compounds on the proliferation ability of BxPC-3 cells, 125 BxPC-3 cells (ATCC®CRL-1687) were seeded into a 384-well plate (Corning 3765), 35 μL per well, and placed in a constant temperature incubator at 37° C. and 5% CO2 overnight. Then, 40 nL of the compound was added to the 384-well plate using an Echo 655 Liquid Handler, with a maximum final concentration of 10 μM, 1:3 serial dilution, and in a total of 10 doses. Incubation was performed at 37° C., 5% CO2 for 6 days. The plate was taken out from the incubator and equilibrated at room temperature for 10 minutes. 20 μL of CTG (Promage G7572) was added to each well of the plate according to the platemap. The plate was centrifuged at 1000 rpm for 1 minute. The lysis of cells was induced by mixing on a shaker for 2 minutes. The plate was centrifuged at 1000 rpm for 1 minute. Incubation was performed at room temperature for 10 minutes to stabilize luminescence signals. Luminescence values were recorded by Envision (PerkinElmer 2105-0020). GraphPad 9.0 was used to fit the inhibition rate and compound concentration into a nonlinear regression curve (dose response-variable slope) to calculate GI50, inhibition rate={1−(A−B)/(C−B)}*100%, A=signal value of compound; B=average signal of blank control; C=average signal of negative control (wherein the negative control was 0.1% DMSO).

[3] = Caco-2 cell permeability test; assay type: in vitro ADME; settings: human, pH 7.4, Caco-2, 10 μM; for Papp A→B at 120 min, 10 μM: A to B; for Papp B→A at 120 min, 10 μM: B to A
Protocol: Caco-2 cells (ATCC, Cat. No. HTB-37) were inoculated to a 96-well plate (Corning HTS Transwell, Cat. No. 3391) at 1.25×10^5/cm2, and the culture medium (DMEM+10% FBS+1% Penicillin-Streptomycin Liquid (100×)+1% NEAA) was replaced every 3 to 4 days. The plate was placed in an incubator at 37° C. with 5% CO2 until a confluent cell monolayer was formed after 21 to 28 days. Before the transport experiment, the culture medium was removed from the cell culture plate, and the plate was washed twice with pre-warmed HBSS buffer (10 mM HEPES, pH 7.4), and 100 μL of HBSS buffer was added to each well. After incubation at 37° C. for 30 minutes, the TEER value was measured using a cell resistance meter (Millicell-ERS2) to confirm the integrity and density of the monolayer cells. The HBSS buffer was discarded, the upper plate containing the cell monolayer membrane was transferred to the corresponding receiving plate, 10 mM test compound stock solution was diluted to a concentration of 10 μM with HBSS transport buffer containing 0.5% BSA, and it was added to the apical side (A side) and basolateral side (B side), respectively. Incubation was carried out for 120 min at 37° C., 5% CO2, and 95% relative humidity, and the permeation of the test compound from A side to B side or from B side to A side and the efflux rate of the compound were determined. The test compound and the reference compound were quantified by LC-MS/MS analysis based on the peak area ratio of analyte/internal standard. The apparent permeability coefficient Papp (cm/s) was calculated using the following formula:
[formula] • wherein, dCr/dt represented the functional relation between cumulative concentration of compound in receptor compartment and time; V represented the volume of solution in receptor compartment (0.1 mL at apical side, and 0.25 mL at basolateral side); A represented the transport surface area, i.e., the monolayer cell area was 0.0804 cm^2; CO represented the initial concentration of compound in donor compartment.
The efflux ratio was calculated using the following formula: […]
The percent recovery was calculated using the following formula:
[formula] [formula] • wherein, Vd represented the volume of donor compartment (0.1 mL on the apical side and 0.25 mL on the basolateral side); C and Cr represented the final concentrations of the transported compound in the donor and receptor compartment, respectively; Cc represented the compound concentration in cell lysate; Vc represented the volume of insert well (which was 0.1 mL in this experiment).

SMILES	EC50 (p53 Y220C [1])	Compound EC50 (nM)/Reference compound EC50 (nM) (p53 Y220C [2])	GI50 (NUGC-3 cells)	Compound GI50 (nM)/Reference compound GI50 (nM) (NUGC-3 cells)	GI50 (BxPC-3 cells)	efflux ratio at 120 min, 10 μM [3]	Papp A→B at 120 min, 10 μM [3]	Papp B→A at 120 min, 10 μM [3]
CNC(=O)c1ccc(NCC#Cc2nc3c(NC4CCN(C)CC4)nccn3c2CC(F)(F)F)c(OC)c1 [Compound 1]	500 to 1000 nM	C (C: EC50 of the compound≥3*EC50 of the reference compound)	1000 to 5000 nM	C (C: GI50 of the compound ≥ 3 * GI50 of the reference compound)	1000 to 5000 nM			
COc1cc(S(C)(=O)=O)ccc1NCC#Cc1nc2c(N[C@@H]3CCN(C)C[C@@H]3F)cccn2c1CC(F)(F)F [Compound 3]	100 to 500 nM	A (A: EC50 of the compound≤EC50 of the reference compound)	< 1000 nM	B (B: GI50 of the reference compound < GI50 of the compound ≤ 3.0 * GI50 of the reference compound)	< 1000 nM			
CNC(=O)c1ccc(NCC#Cc2nc3c(N[C@H]4CC[C@H](N5CC6(COC6)C5)CC4)cccn3c2CC(F)(F)F)c(OC)c1 [Compound 9]	100 to 500 nM	B (B: EC50 of the reference compound<EC50 of the compound≤3.0*EC50 of the reference compound)	< 1000 nM	B (B: GI50 of the reference compound < GI50 of the compound ≤ 3.0 * GI50 of the reference compound)	< 1000 nM			
CNC(=O)c1ccc(NCC#Cc2nc3c(NC4CCS(=O)(=O)CC4)cccn3c2CC(F)(F)F)c(OC)c1 [Compound 10]	100 to 500 nM	C (C: EC50 of the compound≥3*EC50 of the reference compound)	1000 to 5000 nM	C (C: GI50 of the compound ≥ 3 * GI50 of the reference compound)	1000 to 5000 nM			
CNC(=O)c1ccc(NCC#Cc2nc3c(NC4CC[C@@H](N5CC6(COC6)C5)C[C@@H]4F)cccn3c2CC(F)(F)F)c(OC2CC2)c1 (some centres unmarked) [Compound 57]		B (B: EC50 of the reference compound<EC50 of the compound≤3.0*EC50 of the reference compound)		B (B: GI50 of the reference compound < GI50 of the compound ≤ 3.0 * GI50 of the reference compound)	< 1000 nM	1.84	3.7 ×10⁻⁶ cm/s	6.82 ×10⁻⁶ cm/s
CNC(=O)c1ccc(NCC#Cc2nc3c(NC4CCOCC4)cccn3c2CC(F)(F)F)c(OC)c1 [Compound 8]	500 to 1000 nM	C (C: EC50 of the compound≥3*EC50 of the reference compound)	1000 to 5000 nM	C (C: GI50 of the compound ≥ 3 * GI50 of the reference compound)	1000 to 5000 nM			
CNC(=O)c1ccc(NCC#Cc2nc3c(NC4CCC(N5CCOCC5)C[C@@H]4F)cccn3c2CC(F)(F)F)c(OC)c1 (some centres unmarked) [Compound 44]	< 100 nM	B (B: EC50 of the reference compound<EC50 of the compound≤3.0*EC50 of the reference compound)		C (C: GI50 of the compound ≥ 3 * GI50 of the reference compound)		1.79	3.54 ×10⁻⁶ cm/s	6.34 ×10⁻⁶ cm/s
COc1cc(C(=O)N(C)C)ccc1NCC#Cc1nc2c(NC3CC[C@@H](N4CC5(COC5)C4)C[C@@H]3F)cccn2c1CC(F)(F)F (some centres unmarked) [Compound 47]		B (B: EC50 of the reference compound<EC50 of the compound≤3.0*EC50 of the reference compound)		C (C: GI50 of the compound ≥ 3 * GI50 of the reference compound)		1.52	3.97 ×10⁻⁶ cm/s	6.04 ×10⁻⁶ cm/s
CNC(=O)c1ccc(NCC#Cc2nc3c(NC4CC[C@@H](N5CC6(CCC6)C5)C[C@@H]4F)cccn3c2CC(F)(F)F)c(OC)c1 (some centres unmarked) [Compound 42]		B (B: EC50 of the reference compound<EC50 of the compound≤3.0*EC50 of the reference compound)	< 1000 nM	B (B: GI50 of the reference compound < GI50 of the compound ≤ 3.0 * GI50 of the reference compound)		1.72	2.16 ×10⁻⁶ cm/s	3.72 ×10⁻⁶ cm/s
COc1cc(S(C)(=O)=O)ccc1NCC#Cc1nc2c(NC3CCN(C)CC3)cccn2c1CC(F)(F)F [Compound 4]	100 to 500 nM	A (A: EC50 of the compound≤EC50 of the reference compound)	1000 to 5000 nM	B (B: GI50 of the reference compound < GI50 of the compound ≤ 3.0 * GI50 of the reference compound)	< 1000 nM			
